One series has as its target T1, Menin (Homo sapiens, UniProt O00255).
T1 sequence (O00255 whole entry): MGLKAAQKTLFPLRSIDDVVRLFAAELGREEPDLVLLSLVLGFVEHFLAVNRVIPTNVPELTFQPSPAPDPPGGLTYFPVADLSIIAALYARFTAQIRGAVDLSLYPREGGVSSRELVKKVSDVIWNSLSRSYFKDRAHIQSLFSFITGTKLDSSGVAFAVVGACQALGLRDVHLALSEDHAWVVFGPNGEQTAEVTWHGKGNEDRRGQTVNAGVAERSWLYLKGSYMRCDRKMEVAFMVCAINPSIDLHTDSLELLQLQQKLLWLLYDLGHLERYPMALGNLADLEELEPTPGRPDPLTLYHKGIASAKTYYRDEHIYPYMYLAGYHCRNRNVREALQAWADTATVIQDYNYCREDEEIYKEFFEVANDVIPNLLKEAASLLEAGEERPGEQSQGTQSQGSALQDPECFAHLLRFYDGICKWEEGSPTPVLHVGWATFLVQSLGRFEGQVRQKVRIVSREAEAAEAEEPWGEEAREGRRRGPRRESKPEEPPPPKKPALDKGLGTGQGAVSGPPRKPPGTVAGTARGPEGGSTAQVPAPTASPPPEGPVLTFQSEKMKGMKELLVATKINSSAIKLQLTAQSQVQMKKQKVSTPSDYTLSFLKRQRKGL
Kind of series: Binding affinity to menin (unknown origin) incubated for 1 hr by fluorescence polarization assay.

In the next series the test system is HL-60. Description: Antiproliferative activity against human HL-60 cells incubated for 72 hrs by MTT assay. The series is classed as functional, cell-based. Conditions: HL-60, 72 h. Background: Formazan colour is commonly taken as a measure of viable cells.
Series [1] deals with MV4-11. Description: cells. Conditions: Homo sapiens, MV4-11, 72 h.
Description: Antiproliferative activity against human MV4-11 cells incubated for 72 hrs by MTT assay
The nature of series [2]: Antiproliferative activity against human NCM460 cells incubated for 72 hrs by MTT assay. It counts as toxicity, cell-based.
The test system of the next series is SU-DHL-6. Description: Antiproliferative activity against human SU-DHL-6 cells incubated for 72 hrs by MTT assay. It counts as functional, cell-based. Conditions: SU-DHL-6, 72 h.
In the next series the test system is Pfeiffer. Description: Antiproliferative activity against human Pfeiffer cells incubated for 72 hrs by MTT assay. It counts as functional, cell-based.
Another series concerns Raji. Kind of series: Antiproliferative activity against human Raji cells incubated for 72 hrs by MTT assay. The series is classed as functional, cell-based.
The test system of another series is Ramos. Description: Antiproliferative activity against human Ramos cells incubated for 72 hrs by MTT assay. The series is classed as functional, cell-based.
The subject of the next series is MCF7. Description: Antiproliferative activity against human MCF7 cells incubated for 72 hrs by MTT assay. It counts as functional, cell-based. Conditions: MCF7, 72 h.
Another series relates to HCT-116. Kind of series: Antiproliferative activity against human HCT-116 cells incubated for 72 hrs by MTT assay. It counts as functional, cell-based. To be noted: HCT-116, 72 h.
Series [3] has as its system MV4-11. Description: Induction of apoptosis in human MV4-11 cells assessed as early apoptotic cells at 1 uM incubated for 24 hrs by FITC Annexin-V/PI staining based flow cytometry analysis (reference value: 2.68%). The series is classed as functional.
Series [4] has as its system MV4-11. Description: Effect on cell differentiation in human MV4-11 cells assessed as decrease in HOXA9 expression level incubated for 48 hrs by qPCR analysis. It counts as functional, cell-based.
Series [5] concerns MV4-11. Description: Induction of apoptosis in human MV4-11 cells assessed as viable cells at 10 uM incubated for 24 hrs by FITC Annexin-V/PI staining based flow cytometry analysis (reference value: 94.27%). Conditions: read-out: Activity. The series is classed as functional.
The test system of series [6] is MV4-11. Description: Induction of cell cycle arrest in human MV4-11 cells assessed as accumulation of cells at G0/G1 phase at 10 uM incubated for 24 hrs by PI/RNase staining based flow cytometry analysis. It counts as functional. A general note: A flow cytometer gives signals particle by particle.
In series [7] the test system is MV4-11. Kind of series: Effect on cell differentiation in human MV4-11 cells assessed as decrease in MEIS1 expression level incubated for 48 hrs by qPCR analysis. It counts as functional, cell-based. In general terms: In qPCR the cycle at which signal appears reflects the starting amount.
In series [8] the test system is MV4-11. Kind of series: Effect on cell differentiation in human MV4-11 cells assessed as assessed as increase in CD11b protein expression at M2-2 at 10 uM incubated for 7 days by flow cytometry analysis (reference value: 13.86%). It counts as functional. To be noted: time 7 day.
For series [9], the system named is MV4-11. Description: Effect on cell differentiation in human MV4-11 cells assessed as assessed as increase in CD11b protein expression at M2-1 at 10 uM incubated for 7 days by flow cytometry analysis (reference value: 86.12%). The series is classed as functional. Conditions: time 7 day.
In series [10] the test system is MV4-11. Description: Effect on cell differentiation in human MV4-11 cells assessed as decrease in MEIS1 expression level at 5 uM by qPCR analysis. Conditions: time 24-48 hrs, TDE = time-dependent effect. It counts as functional, cell-based.
Series [11] concerns MV4-11. Kind of series: Induction of apoptosis in human MV4-11 cells assessed as necrotic cells at 1 uM incubated for 24 hrs by FITC Annexin-V/PI staining based flow cytometry analysis (reference value: 0.04%). The series is classed as functional.
Series [12] concerns MV4-11. Description: Induction of apoptosis in human MV4-11 cells assessed as late apoptotic cells at 1 uM incubated for 24 hrs by FITC Annexin-V/PI staining based flow cytometry analysis (reference value: 3%). The series is classed as functional.
Series [13] relates to MV4-11. Description: Induction of apoptosis in human MV4-11 cells assessed as late apoptotic cells at 10 uM incubated for 24 hrs by FITC Annexin-V/PI staining based flow cytometry analysis (reference value: 3%). It counts as functional.
Series [14] deals with MV4-11. Kind of series: Effect on cell differentiation in human MV4-11 cells assessed as decrease in HOXA9 expression level at 5 uM by qPCR analysis. The series is classed as functional, cell-based. Conditions: time 24-48 hrs, TDE = time-dependent effect.
In series [15] the test system is MV4-11. Description: Induction of apoptosis in human MV4-11 cells assessed as early apoptotic cells at 10 uM incubated for 24 hrs by FITC Annexin-V/PI staining based flow cytometry analysis (reference value: 2.68%). The series is classed as functional.
For series [16], the system named is MV4-11. Kind of series: Induction of apoptosis in human MV4-11 cells assessed as viable cells at 1 uM incubated for 24 hrs by FITC Annexin-V/PI staining based flow cytometry analysis (reference value: 94.27%). It counts as functional. To be noted: read-out: Activity.
Series [17] concerns MV4-11. Kind of series: Effect on cell differentiation in human MV4-11 cells assessed as assessed as increase in CD11b protein expression at M2-2 at 1 uM incubated for 7 days by flow cytometry analysis (reference value: 13.86%). To be noted: time 7 day. The series is classed as functional.
For series [18], the system named is MV4-11. Description: Induction of apoptosis in human MV4-11 cells assessed as necrotic cells at 10 uM incubated for 24 hrs by FITC Annexin-V/PI staining based flow cytometry analysis (reference value: 0.04%). The series is classed as functional.
Series [19] deals with MV4-11. Kind of series: Effect on cell differentiation in human MV4-11 cells assessed as assessed as increase in CD11b protein expression at M2-1 at 1 uM incubated for 7 days by flow cytometry analysis (reference value: 86.12%). The series is classed as functional. To be noted: time 7 day.

A word on the IC50: it is the midpoint of a concentration-inhibition curve. High values mean a need for much substance, low ones inhibition by little substance.

Calls of active or inactive are those of the source. The calls are words filed in the database; no cut-off is given here. Where only a bound is given, the exact number is not on record here.

As to `N#Cc1ccc(N2CC(CN3CCC(n4ccc5c(Cl)ncnc54)CC3)C2)cc1`, the IC50 is over 10 µM on Menin, over 10 µM in the series with HL-60 and 6.54 µM with MV4-11 [1].

On to `Nc1ncnc2c1c(-c1ccc(F)cc1)cn2C1CCN(CC2CN(c3ccc(S(=O)(=O)C4CC4)cc3)C2)CC1`, for which the half-inhibitory concentration (IC50) was 0.47 µM on Menin, 7.5 µM with HL-60 and 1.26 µM with MV4-11 [1].

As to `CN1CCN(c2ncnc3c2ccn3C2CCN(CC3CN(c4ccc(C#N)cc4)C3)CC2)CC1`, the IC50 at Menin, in the series with HL-60 and with MV4-11 [1] was over 10 µM throughout.

On to `N#Cc1ccc(N2CC(CN3CCC(n4ccc5c(N)ncnc54)CC3)C2)cc1`, for which the IC50 at Menin is 1.47 µM; in the series with HL-60 it was over 10 µM; in the series with MV4-11 [1], 5.2 µM.

As for `CS(=O)(=O)c1ccc(N2CC(CN3CCC(n4cc(-c5ccc(F)cc5)c5c(N)ncnc54)CC3)C2)cc1`, the results for the IC50 on Menin, with HL-60 and in the series with MV4-11 [1] were 0.73 µM, over 10 µM and 2.05 µM, respectively.

For the molecule `Nc1ncnc2c1c(-c1ccc(F)cc1)cn2C1CCN(CC2CN(c3ccc(S(=O)(=O)C4CCC4)cc3)C2)CC1`, the IC50 on Menin is 0.53 µM; in the series with HL-60, 8.8 µM; in the series on MV4-11 [1] it was 1.69 µM.

In the case of `Nc1ncnc2c1c(-c1ccc(F)cc1)cn2C1CCN(CC2CN(c3ccc(S(=O)(=O)C4CCCC4)cc3)C2)CC1`, the IC50 on Menin was 1.04 µM; with HL-60, over 10 µM; with MV4-11 [1] it was 1.94 µM.

Regarding `CCS(=O)(=O)c1ccc(N2CC(CN3CCC(n4cc(-c5ccc(F)cc5)c5c(N)ncnc54)CC3)C2)cc1`, the IC50 at Menin was 0.45 µM; in the series on HL-60 it was over 10 µM; with MV4-11 [1], 1.29 µM.

Consider `CC(C)(C)OC(=O)N1CC(S(=O)(=O)c2ccc(N3CC(CN4CCC(n5cc(-c6ccc(F)cc6)c6c(N)ncnc65)CC4)C3)cc2)C1`, for which the IC50 at Menin was 1.14 µM; in the series on HL-60, over 10 µM; in the series with MV4-11 [1], 1.35 µM.

Regarding `CC[C@H](Nc1ncnc2[nH]cnc12)c1nc2cccc(F)c2c(=O)n1-c1ccccc1` [IDELALISIB], the IC50 in the series on HL-60 is over 10 µM; with SU-DHL-6, 0.1 µM; in the series on Pfeiffer it was over 10 µM; with MV4-11 [1] it was over 10 µM; in the series with Raji, over 10 µM; with Ramos it was over 10 µM. The IC50 in the series with MCF7 and in the series with HCT-116 was over 10 µM throughout. Moreover, the IC50 at 72 h in series [2] was over 10 µM.

Consider `N#Cc1ccc(N2CC(CN3CCC(n4ccc5cncnc54)CC3)C2)cc1`, for which the IC50 on Menin, with HL-60 and with MV4-11 [1] was over 10 µM in each case.

As for `Nc1ncnc2c1c(-c1ccc(F)cc1)cn2C1CCN(CC2CN(c3ccc(S(=O)(=O)C4CCCCC4)cc3)C2)CC1`, the results for the IC50 at Menin, in the series with HL-60 and with MV4-11 [1] were 0.25 µM, over 10 µM and 2 µM, respectively.

Turning to `CCCc1cc2c(N3CCN(C4=NCC(C)(C)S4)CC3)ncnc2s1`, the Activity is 3.12% in the series with MV4-11 [3]; “Dose-Dependent Effect” in the series on MV4-11 [4]; “Dose-Dependent Effect” in the series with MV4-11 [7]; 52.13% in the series with MV4-11 [8]; 47.84% in the series on MV4-11 [9]; “Tde” in the series on MV4-11 [10]. For the same molecule, the Activity in the series on MV4-11 [11] was 0.09%; with MV4-11 [12] it was 3.02%; in the series with MV4-11 [13], 18.52%; in the series on MV4-11 [14], “Tde”; in the series on MV4-11 [15], 13.22%; with MV4-11 [17], 21%. Moreover, the Activity with MV4-11 [18] stood at 0.19%; in the series on MV4-11 [19], 79%. In the series with HL-60, the IC50 was over 10 µM. The viability at 10 µM with MV4-11 [5] was determined as 68%. Further, the outcome with MV4-11 [6] was Active. Also, the viability at 1 µM in the series with MV4-11 [16] came to 93.8%.

In the case of `Nc1ncnc2c1c(-c1ccc(F)cc1)cn2C1CCN(CC2CN(c3ccc(S(=O)(=O)c4ccncc4)cc3)C2)CC1`, the IC50 on Menin is 1.22 µM; with HL-60 it was over 10 µM; with MV4-11 [1], over 10 µM.

Consider `CN(C)CCOc1ncnc2c1ccn2C1CCN(CC2CN(c3ccc(C#N)cc3)C2)CC1`, for which the IC50 at Menin, in the series on HL-60 and in the series on MV4-11 [1] was over 10 µM throughout.

Source of the values: ChEMBL document CHEMBL5505977, “Discovery of novel pyrrolo[2,3-d]pyrimidines as potent menin-mixed lineage leukemia interaction inhibitors” (Eur J Med Chem, 2024).
